How the values were obtained:
MC3T3-E1 cells = type: cell-based, murine
Method: Increased plasma membrane permeability that occurs during cell death can be visualised using trypan blue, a dye that is excluded from living cells and is incorporated into the cells when they are undergoing death (Bellido and Plotkin (2008) Methods Mol. Biol. 455:51-75).
After 24 h, the cell culture supernatant containing the floating cells was collected and put in previously labelled eppendorf tubes. Each well was washed in PBS before trypsin was added to detach adherent cells. The mixture containing detached adherent cells was collected and pooled in the eppendorf containing the cell culture supernatant. Cells were spun at 1,500 rotation per minute (rpm) for 10 minutes, the supernatant was removed carefully and cells were incubated with trypan blue 0.04% and transferred into a haemocytometer. Living (clear) and dead (blue) cells were counted under light microscope examination and the percentage of dead cells was determined for each condition as follow: % of dead cells=100×(Number of dead cells)/(Number of dead cells+Number of living cells)

Murine Raw 264.7 cells = assay: Raw264.7 cell-mediated osteoclast formation in vitro (Example 2); type: cell-based; conditions: 10 ng/ml soluble murine RANKL, 110 h, TRAcP staining
From the text: TRAcP positive cells, with more than three nuclei, were identified as osteoclasts.

[1] = system: human GIPr and the human GLP-2r; assay: Cyclic AMP assay (FRET, H74 probe), HEK-293 co-transfected with human GIPr and human GLP-2r; type: cell-based; conditions: 10^-9 M
Method: (§1) Human HEK-293 cells were plated at a density of 2×10^5 cells/cm^2 in 4 well microslides (ibidi GmbH, Martinsried, Germany). […] Jalink (Netherland Cancer Institute, Amsterdam, Netherland). […] The image acquisition was performed with a 63 X, 1.4 N.A. oil immersion objective and a Hybrid® detector (Leica) and images were collected after 30 minutes. Donor excitation was made with a 458 nm Ar laser, donor emission was collected between 460-505 nm and acceptor emission between 520-600 nm by setting the SP8 spectrometer accordingly. FRET was expressed as the ratio between donor and acceptor signals.

human GLP-2r = target: T1, human GLP-2r (Homo sapiens, UniProt O95838); assay: Cyclic AMP assay (FRET, H74 probe), HEK-293 transfected with human GLP-2r; type: cell-based; conditions: HEK 293 transfected only with human GLP-2r, 10^-9 M, 30 min (FIG. 17)
T1 construct: host or cells: HEK-293
T1 sequence (O95838 1-553): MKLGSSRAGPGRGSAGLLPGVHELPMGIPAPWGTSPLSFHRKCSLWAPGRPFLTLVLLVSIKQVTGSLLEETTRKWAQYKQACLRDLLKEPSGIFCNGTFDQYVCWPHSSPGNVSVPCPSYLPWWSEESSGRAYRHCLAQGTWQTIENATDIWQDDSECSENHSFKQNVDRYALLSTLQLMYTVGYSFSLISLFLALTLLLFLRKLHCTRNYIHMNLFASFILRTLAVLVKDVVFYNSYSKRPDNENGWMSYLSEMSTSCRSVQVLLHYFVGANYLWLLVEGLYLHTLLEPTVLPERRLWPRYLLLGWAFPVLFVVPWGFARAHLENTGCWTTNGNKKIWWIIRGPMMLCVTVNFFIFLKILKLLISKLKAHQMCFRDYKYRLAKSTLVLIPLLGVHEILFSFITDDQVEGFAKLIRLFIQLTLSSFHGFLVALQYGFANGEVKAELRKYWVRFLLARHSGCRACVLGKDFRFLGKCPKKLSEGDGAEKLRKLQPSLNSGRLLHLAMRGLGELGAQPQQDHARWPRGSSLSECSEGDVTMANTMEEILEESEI
Method: as §1

[2] = system: ovariectomy-induced bone loss in mice; assay: Cortical bone strength, 3-point bending at the midshaft femur, ovariectomized mice; type: in vivo
Method: At 16 weeks of age, ALZET osmotic pumps (model number 2006, Durect Corp., Cupertino, CA) filled with the below saline or peptide were implanted subcutaneously between the two scapula under general anesthesia in 32 mice. Successful filling of pumps was verified by weighting the pump before and after filling. At 20 weeks of age, ALZET osmotic pumps were replaced by similar pumps to ensure delivery for four new weeks. […] This dose and regimen of zoledronic acid was equivalent to the 5 mg infusion approved for the treatment of post-menopausal osteoporosis in humans. At necropsy, femurs and second lumbar vertebras (L2) were cleaned of soft tissue and immediately frozen in a saline-soaked gauze at −20° C. Three-point-bending experiments were performed on femurs after thawing bones at 4° C. overnight. Femurs were loaded to failure in 3-point bending at 2 mm/min using a servohydraulic materials testing system (Instron 5942, Instron, Elancourt, France). The lower span length was of 10 mm. Femurs were oriented so the anterior quadrant was facing down and subjected to tensile loads. Load and displacement of the upper crosshead, which were digitally recorded at a sampling rate of 100 Hz, were measured using a 500 N load cell (Instron). Stiffness, ultimate load, yield load, post-yield displacement (PYD), and work-to-fracture were calculated from the load-displacement curves. PYD was defined as the displacement at failure minus the displacement at yield.

Murine MC3T3-E1 cells = assay: Collagen maturity assay in MC3T3-E1 cultures (Example 2); type: cell-based; conditions: compared with [D-Ala^2]GIP1-30NH2 and [Gly^2]GLP-2
Method: At confluence, the propagation medium was replaced by the differentiation medium containing αMEM supplemented with 5% FBS, 5% bovine calf serum, 100 U/mL penicillin, 100 μg/mL streptomycin, 50 μg/ml ascorbic acid and various concentrations of analogues. This day was considered as day 1. The differentiation medium was replenished every two days. […] Cultures were rinsed at least six times with milliQ water, fixed in absolute ethanol, scrapped off the culture dish and transferred onto BaF2 windows where they were air-dried. Integrity of the collagen extracellular matrix was verified by comparing the obtained Fourier transform infrared spectrum with those of commercial collagen. Spectral analysis was performed using a Bruker Vertex 70 spectrometer (Bruker optics, Ettlingen, Germany) interfaced with a Bruker Hyperion 3000 infrared microscope equipped with a standard single element Mercury Cadmium Telluride (MCT) detector. Infrared spectra were recorded at a resolution of 4 cm^−1, with an average of 32 scans in transmission mode. Background spectral images were collected under identical conditions from the same BaF2 windows at the beginning and end of each experiment to ensure instrument stability. At least 20 spectra were acquired for each condition and analyzed with a lab-made routine script in Matlab R2016b (The Mathworks, Natick, MA).

[3] = OVX mice, 100 nmoles/kg/day, 8 weeks, vs vehicle

Row | Compound | osteoblast cell death (MC3T3-E1 cells) | IC50 (Murine Raw 264.7 cells) [nM] | intracellular levels of cAMP ([1]; HEK 293 co-transfected with human GIPr and human GLP-2r, 30 min (FIG. 18)) | magnitude of cAMP rise versus native peptides ([1]; co-transfected HEK 293 cells) | intracellular levels of cAMP (human GLP-2r) | increase in work-to-fracture ([2]; OVX mice, 25 nmoles/kg/day, 8 weeks, vs vehicle) [%] | increase in post-yield displacement ([2]; mouse, in vivo) [%] | increase in ultimate displacement ([2]; mouse, in vivo) [%] | potency versus native peptides, based on osteoclast formation in vitro and collagen maturity in vitro (Murine MC3T3-E1 cells) | augmentation in work-to-fracture [2, 3] [%] | increase in post-yield displacement [2, 3] [%] | increase in ultimate displacement [2, 3] [%]
1 | CC[C@H](C)[C@H](NC(=O)[C@H](CO)NC(=O)[C@H](CCSC)NC(=O)[C@H](CC(=O)O)NC(=O)[C@H](CO)NC(=O)CNC(=O)[C@H](Cc1ccccc1)NC(=O)[C@H](CO)NC(=O)CNC(=O)[C@H](CCC(=O)O)NC(=O)CNC(=O)[C@@H](N)Cc1c[nH]cn1)C(=O)N[C@@H](C)C(=O)N[C@@H](CC(C)C)C(=O)N[C@@H](CC(=O)O)C(=O)N[C@@H](CCCCN)C(=O)N[C@@H](CC(C)C)C(=O)N[C@@H](C)C(=O)N[C@@H](C)C(=O)N[C@@H](CCCNC(=N)N)C(=O)N[C@@H](CC(=O)O)C(=O)N[C@@H](Cc1ccccc1)C(=O)N[C@H](C(=O)N[C@@H](CC(N)=O)C(=O)N[C@@H](Cc1c[nH]c2ccccc12)C(=O)N[C@@H](CC(C)C)C(=O)N[C@@H](CC(C)C)C(=O)N[C@@H](CCC(N)=O)C(=O)N[C@H](C(=O)N[C@@H](CCCCN)C(=O)N[C@H](C(=O)N[C@H](C(=O)N[C@@H](CC(=O)O)C(=O)O)[C@@H](C)O)[C@@H](C)CC)[C@@H](C)O)C(C)C [GL-0001] | does not induce cell death | 0.0182 ± 0.0056 | increased intracellular levels of cAMP | greater with GL-0001 than with each native peptide | increased intracellular levels of cAMP | 37 | 70 | 34 | better potency than each native peptide |  |  | 
2 | CC[C@H](C)[C@H](NC(=O)[C@H](CO)NC(=O)[C@H](Cc1ccccc1)NC(=O)[C@H](CC(=O)O)NC(=O)[C@H](CO)NC(=O)CNC(=O)[C@H](Cc1ccccc1)NC(=O)[C@H](CO)NC(=O)CNC(=O)[C@H](CCC(=O)O)NC(=O)CNC(=O)[C@@H](N)Cc1c[nH]cn1)C(=O)N[C@@H](C)C(=O)N[C@@H](CC(C)C)C(=O)N[C@@H](CC(=O)O)C(=O)N[C@@H](CCCCN)C(=O)N[C@@H](CC(C)C)C(=O)N[C@@H](C)C(=O)N[C@@H](C)C(=O)N[C@@H](CCCNC(=N)N)C(=O)N[C@@H](CC(=O)O)C(=O)N[C@@H](Cc1ccccc1)C(=O)N[C@H](C(=O)N[C@@H](CC(N)=O)C(=O)N[C@@H](Cc1c[nH]c2ccccc12)C(=O)N[C@@H](CC(C)C)C(=O)N[C@@H](CC(C)C)C(=O)N[C@@H](CCC(N)=O)C(=O)N[C@H](C(=O)N[C@@H](CCCCN)C(N)=O)[C@@H](C)O)C(C)C [GL-0007] |  |  |  |  |  |  |  |  | better potency than each native peptide | 33 | 62 | 33
